“Also recorded” adds a separate entry of the source. Square brackets hold non-standard residues; d marks the D form. Peptide text beside a SMILES is read from it. * marks the point of attachment. ξ: configuration not given here. Dansyl = CN(C)c1cccc2c(S(=O)(=O)*)cccc12; ξQ = NC(=O)CCC(N)C(=O)O; Ahx = NCCCCCC(=O)O
Experiments:
[1] = molecular target: T1, NK6-AP (Escherichia coli, UniProt P00634); experiment: Degree of labeling of dual labeled protein (absorbance at 280 nm and 330 nm); details: after His-tag purification
T1 construct: NK6-AP; MKHKGSTPEMP-ALGLKLEHHHHHH; made in house
T1 sequence (P00634 22-471): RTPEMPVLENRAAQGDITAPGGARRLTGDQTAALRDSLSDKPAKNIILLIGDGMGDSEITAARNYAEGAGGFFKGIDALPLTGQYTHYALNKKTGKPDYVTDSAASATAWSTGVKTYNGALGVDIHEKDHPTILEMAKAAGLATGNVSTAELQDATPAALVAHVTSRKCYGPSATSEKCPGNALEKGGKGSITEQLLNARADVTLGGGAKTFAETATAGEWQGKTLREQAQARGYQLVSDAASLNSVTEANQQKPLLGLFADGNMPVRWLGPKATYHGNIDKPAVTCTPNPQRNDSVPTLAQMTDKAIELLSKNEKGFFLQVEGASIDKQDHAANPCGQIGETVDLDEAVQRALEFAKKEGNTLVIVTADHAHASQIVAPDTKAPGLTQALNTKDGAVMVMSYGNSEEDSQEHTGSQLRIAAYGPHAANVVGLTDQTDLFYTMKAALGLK
Experimental: By His-tag purification on a Ni-NTA column, the dual labeled protein was separated from an excess of Dns-β-Ala-QG-biotin. An excess of the imidazole used in the elution step was removed by gel filtration purification on a PD-10 column with 20 mM Tris-HCl (pH 8) being used as an elution buffer.
The resulting dual labeled protein was concentrated with a suction-type centrifugal evaporator and an attempt was made to calculate the degree of its labeling by measuring the absorbance at 280 nm and 330 nm.

[2] = molecular target: T1, NK6-AP; experiment: Effect of modification on the enzymatic activity of NK6-AP (p-NPP); type: biochemical; details: AP 28 nM, p-NPP 1 mM, pH 8.0, 27° C., with vs without MTG
Experimental: The effect of introduction on the enzymatic activity was studied. In the study, p-nitrophenylphosphoric acid (p-NPP) was used as a substrate and the activities of the samples prepared in Experiment 2-2 were measured; AP would catalyze the dephosphorylation of p-NPP to form p-nitrophenol (p-NP). The reaction conditions for activity measurement were AP 28 nM, p-NPP 1 mM and pH 8.0 and at a controlled temperature of 27° C., the p-NP derived absorption at 410 nm was traced.
(§1) The activities of the samples prepared in Experiment 2-2 were measured, with p-nitrophenylphosphoric acid (p-NPP) being used as a substrate; AP would catalyze the dephosphorylation of p-NPP to form p-nitrophenol (p-NP). The reaction conditions for activity measurement were AP 28 nM, p-NPP 1 mM and pH 8.0 and at a controlled temperature of 27° C., the p-NP derived absorption at 410 nm was traced.
as §1, with “With” for “The activities of the samples prepared in Experiment 2-2 were measured, with”, “substrate, the sampled prepared in Experiment 2-4 were measured;” for “substrate;”, “(p-NP) (see below).” for “(p-NP).”

[3] = molecular target: T2, MTG (Streptomyces mobaraensis, UniProt P81453); experiment: MTG-catalyzed introduction of fluorescent substrates into NK6-AP (SDS-PAGE, fluorescent imager); type: biochemical, microbial; details: NK6-AP 0.5 mg/ml, MTG 1 U/ml; for Reactivity of MTG for fluorescent substrate (introduction into NK6-AP): substrate 1 mM, 10 mM Tris-HCl pH 8, overnight 4° C.
T2 construct: purchased AJINOMOTO (supplied as a gift)
T2 sequence (P81453 77-407): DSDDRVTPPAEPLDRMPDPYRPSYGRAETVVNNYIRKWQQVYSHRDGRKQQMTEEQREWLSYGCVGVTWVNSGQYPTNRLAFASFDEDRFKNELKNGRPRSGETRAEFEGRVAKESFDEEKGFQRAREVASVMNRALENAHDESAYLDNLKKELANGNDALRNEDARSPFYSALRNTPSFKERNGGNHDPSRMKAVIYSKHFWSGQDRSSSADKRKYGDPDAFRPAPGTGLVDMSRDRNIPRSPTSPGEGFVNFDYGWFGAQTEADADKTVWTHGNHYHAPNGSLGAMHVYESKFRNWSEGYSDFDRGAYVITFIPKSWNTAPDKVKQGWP
Experimental: To perform a binding reaction, the fluorescent substrate (FITC-ε-Acp-QG, FITC-β-Ala-QG, Flc-QG, TR-β-Ala-QG or Dns-ε-Acp-QG), NK6-AP and MTG were added to 10 mM Tris-HCl (pH 8) to give respective final concentrations of 1 mM, 0.5 mg/ml and 1 U/ml and they were thoroughly agitated and the resulting solution was left to stand overnight at 4° C. For the purpose of comparison, an MTG-free sample was prepared.
After the reaction, the samples were subjected to SDS-polyacrylamide gel electrophoresis (SDS-PAGE). The gel from SDS-PAGE was examined with a fluorescent imager before it was stained with Coomassie Brilliant Blue (CBB) in solution. For the sample containing Dns-ε-Acp-QG, examination was made with a transilluminator.
(§2) A study was made using FITC-β-Ala-QG as a fluorescent substrate. The reaction conditions for introducing FITC-β-Ala-QG into NK6-AP were as follows: FITC-β-Ala-QG, NK6-AP and MTG were added to 10 mM Tris-HCl (pH 8) to give respective final concentrations of 0.1 mM, 0.5 mg/ml and 0.1 U/ml and they were thoroughly agitated at 4° C. for 0-5 hours. To trace the binding, the gel from SDS-PAGE was analyzed by a fluorescent imager.
as §2, with “1-1000 μM,” for “0.1 mM,”, “15 minutes. Tracing on” for “0-5 hours. To trace”, “sample after” for “binding,”, “reaction” for “gel from SDS-PAGE”, “performed” for “analyzed”, “the same procedure as in Experiment 2-4.” for “a fluorescent imager.”
Dns-β-Ala-QG-biotin, NK6-AP and MTG were added to 20 mM Tris-HCl (pH 8) to give respective final concentrations of 100 μM, 0.5 mg/ml, and 1 U/ml. For the purpose of comparison, an MTG-free sample was prepared. The ingredients were thoroughly agitated and the resulting solution was left to stand overnight at 4° C. for reaction.
After the reaction, the samples were subjected to SDS-polyacrylamide gel electrophoresis (SDS-PAGE). The gel from SDS-PAGE was examined with a transilluminator before it was stained with Coomassie Brilliant Blue (CBB) in solution.
To a 50 mM buffer whose pH was varied over the range of from 5 to 9, FITC-β-Ala-QG, NK6-AP and MTG were added to give respective final concentrations of 0.1 mM, 0.5 mg/ml, and 0.1 U/ml. These ingredients were well stirred and left to stand at 4° C. for reaction. After 6-hr or 15-minute reaction, the sample was mixed with a sample buffer and heated at 95° C. for 15 minutes to stop the reaction. Thereafter, SDS-polyacrylamide gel electrophoresis (SDS-PAGE) was applied. The gel from SDS-PAGE was stained with Coomassie Brilliant Blue (CBB) and observed with a fluorescent imager.
(§3) To 50 mM Tris-HCl (pH 8), FITC-β-Ala-QG, NK6-AP and MTG were added to give respective final concentrations of 0.1 mM, 0.5 mg/ml, and 0.001-1 U/ml. These ingredients were well stirred and left to stand at 4° C. for reaction. The reaction was stopped and evaluation was made by the same procedures as in Experiment 2-2.
as §3, with “FITC-β-Ala-QG-alkyne,” for “FITC-β-Ala-QG,”, “0.1” for “0.001-1”, “For the purpose of comparison, a MTG-free sample was also prepared. Both samples” for “These ingredients”

[4] = molecular target: T2, MTG; experiment: MTG-catalyzed introduction of fluorescent substrates into anti-lysozyme IgG2a antibody; type: biochemical, microbial; details: substrate 1 mM, mouse anti-lysozyme IgG2a 0.5 mg/ml, MTG 1 U/ml, pH 7, overnight 4° C.; reduced SDS-PAGE
Experimental: A fluorescent substrate (FITC-ε-Acp-QG, FITC-β-Ala-QG, TR-β-Ala-QG or […]), mouse-derived anti-lysozyme IgG2a antibody (monoclonal) and MTG were added to a 10 mM phosphate buffer (pH 7) to give respective final concentrations of 1 mM, 0.5 mg/ml and 1 U/ml. For the purpose of comparison, an MTG-free sample was prepared. The ingredients were thoroughly agitated and the resulting solution was left to stand overnight at 4° C.
After the reaction, the samples were subjected to SDS-PAGE. The gel from SDS-PAGE was examined with a fluorescent imager before it was stained with a CBB dye solution. For the Dns-ε-Acp-QG containing sample, examination was made with a transilluminator.

[5] = molecular target: T2, MTG; experiment: MTG-catalyzed introduction of fluorescent substrates into NK6-AP (SDS-PAGE, fluorescent imager); type: biochemical, microbial; details: substrate 1 mM, NK6-AP 0.5 mg/ml, MTG 1 U/ml, 10 mM Tris-HCl pH 8, overnight 4° C.; listed as Dns-β-Acp-QG
[6] = system: BSA (antigen); experiment: Antigen recognizing ability by ELISA (rabbit-derived anti-BSA IgG antibody); type: binding; details: rabbit-derived anti-BSA IgG antibody (polyclonal) modified by MTG
Experimental: A study was made on samples that were prepared by introducing a fluorescent substrate (FITC-ε-Acp-QG or FITC-β-Ala-QG) into a rabbit-derived anti-BSA IgG antibody (polyclonal) under the same conditions as in Experiment 2-2.
ELISA was performed by the following procedure (FIG. 3-5). • 1) To a Black Plate, 5 mg/ml of BSA (antigen) was added in an amount of 150 µl/well and left to stand overnight at 37° C. • 2) The product of 1) was washed with PBST five times. • 3) Modified anti-BSA IgG antibodies were added in an amount of 60 µl/well and left to stand at room temperature for 5 hours. • 4) The product of 3) was washed with PBST five times. • 5) Examination was made with a fluorescent imager. • 6) A […] sample of AP-labeled anti-rabbit IgG IgG antibodies were added in an amount of 150 µl/well and left to stand at 37° C. for 3 hours. • 7) The product of 6) was washed with TBST five times. • 8) The substrate was added and 10 minutes later, fluorescence derived from the enzymatic reaction was examined with a fluorescent imager.

[7] = molecular target: avidin (Gallus gallus, UniProt P02701); details: cited from earlier work
avidin (Gallus gallus, UniProt P02701), sequence (P02701 25-152, species assumed): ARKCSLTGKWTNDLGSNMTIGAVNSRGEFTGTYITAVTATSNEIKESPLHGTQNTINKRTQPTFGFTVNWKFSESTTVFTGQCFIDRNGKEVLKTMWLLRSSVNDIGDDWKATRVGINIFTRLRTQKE

[8] = fluorescein in FITC-β-Ala-QG; cited from earlier work
[9] = system: avidin; experiment: Immobilizing the dual labeled protein on avidin-coated microplate; type: binding; details: 1.5 μM, 37° C., 1 h; dansyl fluorescence and AP activity (ECF)
Experimental: 2-6. Immobilizing the Dual Labeled Protein on Microplate • 1) After His-tag purification, the dual labeled protein (1.5 μM) was dissolved in 20 mM Tris-HCl (pH 8) and added onto an avidin-coated microplate (product of Nunc) in an amount of 100 μl/well so that it would be immobilized by the interaction between biotin and avidin (37° C., 1 h). • 2) To observe the fluorescence derived from dansyl groups, 20 mM Tris-HCl (pH 8) was added in an amount of 100 μl/well and immobilization was verified by a fluorescent imager. • 3) A solution of ECF as a fluorescent substrate of AP was diluted 100 folds with 1 M Tris-HCl (pH 8) and added onto the plate in an amount of 100 μl/well for reaction with the immobilized AP (25° C., 5 min). (Before steps 2) and 3), a microplate washer was used to wash the plate with TBST (TBS+[…] Tween 20) three times each in an amount of 300 μl/well.)

Molecule: CN(C)c1cccc2c(S(=O)(=O)NCCC(=O)NC(CCC(N)=O)C(=O)NCC(=O)NCCOCCOCCNC(=O)CCCC[C@@H]3SC[C@@H]4NC(=O)N[C@@H]43)cccc12 (stereo partly drawn) [Dns-β-Ala-QG-biotin]
- Degree of labeling (moles of dansyl groups / moles of NK6-AP) [1]: 1.1
- Relative activity of NK6-AP after MTG-catalyzed introduction [2]: hardly any difference in the activity of AP; also recorded: in no way affected by the introduction
- Reactivity of MTG for dual labeled substrate (introduction into NK6-AP) ([3]; substrate 100 μM, 20 mM Tris-HCl pH 8, overnight 4° C.): had been introduced into NK6-AP; also recorded: confirmed the MTG-catalyzed introduction

Molecule: CN(C)c1cccc2c(S(=O)(=O)NCCCCCC(=O)NC(CCC(N)=O)C(=O)NCC(=O)O)cccc12 (stereo not shown) [Dns-ε-Acp-QG] ({Dansyl-Ahx}-[ξQ]-Gly-OH)
- Reactivity of antibody with fluorescent substrate by MTG catalysis [4]: H chains of the antibody are modified; also recorded: site-specific modification of the H chains in the antibody
- Reactivity of MTG for fluorescent substrate (introduction into NK6-AP) [5]: served as substrates of MTG
- Reactivity of MTG for fluorescent substrate (introduction into NK6-AP) [3]: recognizable as a substrate of MTG

Molecule: NC(=O)CCC(NC(=O)CCCCCNC(=S)Nc1ccc(-c2c3ccc(=O)cc-3oc3cc(O)ccc23)c(C(=O)O)c1)C(=O)NCC(=O)O (stereo not shown) [FITC-ε-Acp-QG]
- Antigen recognizing ability of modified antibody [6]: maintained its antigen recognizing ability
- Reactivity of antibody with fluorescent substrate by MTG catalysis [4]: H chains of the antibody are modified; also recorded: site-specific modification of the H chains in the antibody
- Reactivity of MTG for fluorescent substrate (introduction into NK6-AP) [3]: served as substrates of MTG; also recorded: recognizable as a substrate of MTG

Molecule: NC(=O)CCC(NC(=O)c1ccc(-c2c3ccc(=O)cc-3oc3cc(O)ccc23)c(C(=O)O)c1)C(=O)NCC(=O)O (stereo not shown) [Flc-QG]
- Reactivity of MTG for fluorescent substrate (introduction into NK6-AP) [3]: not recognizable by MTG; also recorded: not recognized as a substrate

Molecule: O=C(O)CCCC[C@@H]1SC[C@@H]2NC(=O)N[C@@H]21 [biotin]
- Ka [7]: 10^15 M

Molecule: fluorescein isothiocyanate [FITC]
- pKa [8]: 6.4

B1: dual labeled protein: NK6-AP into which Dns-β-Ala-QG-biotin was introduced by MTG catalysis (conjugate)
chain: MKHKGSTPEMPVLENRAAQGDITAPGGARRLTGDQTAALRDSLSDKPAKNIILLIGDGMGDSEITAARNYAEGAGGFFKGIDALPLTGQYTHYALNKKTGKPDYVTDSAASATAWSTGVKTYNGALGVDIHEKDHPTILEMAKAAGLATGNVSTAELQDATPAALVAHVTSRKCYGPSATSEKCPGNALEKGGKGSITEQLLNARADVTLGGGAKTFAETATAGEWQGKTLREQAQARGYQLVSDAASLNSVTEANQQKPLLGLFADGNMPVRWLGPKATYHGNIDKPAVTCTPNPQRNDSVPTLAQMTDKAIELLSKNEKGFFLQVEGASIDKQDHAANPCGQIGETVDLDEAVQRALEFAKKEGNTLVIVTADHAHASQIVAPDTKAPGLTQALNTKDGAVMVMSYGNSEEDSQEHTGSQLRIAAYGPHAANVVGLTDQTDLFYTMKAALGLKLEHHHHHH
- Immobilization on avidin-coated microplate [9]: immobilized on the microplate while retaining its function

Reference: patent US20110184147A1, “ENZYME SUBSTRATE FOR LABELING OF PROTEIN” (priority 2008, published 2011)
